Source: US20230047788A1, “COMPOSITIONS COMPRISING 5-CHOLESTEN-3, 25-DIOL, 3-SULFATE (25HC3S) OR PHARMACEUTICALLY ACCEPTABLE SALT THEREOF AND AT LEAST ONE CYCLIC OLIGOSACCHARIDE” (Virginia Commonwealth University, priority 2016, published 2023)

Assay: Effect of phosphate and borate buffers on chemical stability (% remaining, impurity profile), osmolality, pH and appearance of 25HC3S 30 mg/mL in 250 mg/mL HPBCD at 80°C and 60°C
Assay type: physicochemical
Details: 80° C.
Experimental: A total of six 25HC3S formulations at 30 mg/mL in 250 mg/mL of 2-hydroxypropyl beta cyclodextrin (HPBCD) containing 10, 20, 50 and 100 mM phosphate buffers at pH 7.5 to 8.1 and 10 and 50 mM borate buffers at pH 9.4 were prepared for the stability study. The chemical stability (measured as % remaining of 25HC3S) and physical stability (osmolality, pH and appearance) of the formulations were monitored under accelerated conditions for up to 7 days at 80° C. and up to 29 days at 60° C.
Two stock solutions of phosphate buffer at 100 and 200 mM at pH 7.4 and 7.3, respectively and one borate buffer at 100 mM at pH 9.3 were prepared (Tables 22A and 22B) and used for 250 mg/mL HPBCD vehicles preparation (Table 23).
Approximately 1200 mg each of 25HC3S was weighed into 40 mL volumetric flasks and diluted to volume with the six HPBCD vehicles containing 10-100 mM phosphate buffers or 10 and 50 mM borate buffers, respectively (Table 24). The final concentration of 25HC3S was 30 mg/mL (wt/volume, without adjusting for API purity). Aliquots of 2 mL of each formulation were filled into 2 mL glass vials, stoppered and sealed for stability sample set-up at 60° C. and 80° C. to study the effect of phosphate buffer (pH 7.5-8.1) and borate buffer (pH 9.4) at various buffer concentrations on the stability of the HPBCD formulations (Table 26).
A 0.5 mL of sample solution was transferred to a 25 mL volumetric flask and QS'ed with methanol/water=95/5 for 25HC3S concentration determination by HPLC. The % remaining of 25HC3S was calculated as follows: […]

C[C@H](CCCC(C)(C)O)[C@H]1CC[C@H]2[C@@H]3CC=C4C[C@@H](OS(=O)(=O)[O-])CC[C@]4(C)[C@H]3CC[C@]12C.[Na+] [25HC3S, 5-cholesten-3, 25-diol, 3-sulfate]
% Peak Area Major Thermal Degradant at RRT = 2.64 (day 0, Phosphate 10 mM): 0.3 % Peak Area
% Peak Area 25-Hydroxy Cholesterol at RRT = 3.67 (day 0, Phosphate 20 mM): 0.0 % Peak Area
% Peak Area 25HC3S (day 0, Phosphate 20 mM): 99.7 % Peak Area
% Peak Area Major Thermal Degradant at RRT = 2.64 (day 0, Phosphate 20 mM): 0.3 % Peak Area
% Peak Area 25-Hydroxy Cholesterol at RRT = 3.67 (day 0, Phosphate 50 mM): 0.0 % Peak Area
% Peak Area 25HC3S (day 0, Phosphate 50 mM): 99.7 % Peak Area
% Peak Area Major Thermal Degradant at RRT = 2.64 (day 0, Phosphate 50 mM): 0.3 % Peak Area
% Peak Area 25-Hydroxy Cholesterol at RRT = 3.67 (day 0, Phosphate 100 mM): 0.0 % Peak Area
% Peak Area 25HC3S (day 0, Phosphate 100 mM): 99.8 % Peak Area
% Peak Area Major Thermal Degradant at RRT = 2.64 (day 0, Phosphate 100 mM): 0.3 % Peak Area
% Peak Area 25-Hydroxy Cholesterol at RRT = 3.67 (day 1, Borate 10 mM): 1.0 % Peak Area
% Peak Area 25HC3S (day 1, Borate 10 mM): 98.8 % Peak Area
% Peak Area Major Thermal Degradant at RRT = 2.64 (day 1, Borate 10 mM): 0.3 % Peak Area
% Peak Area 25-Hydroxy Cholesterol at RRT = 3.67 (day 1, Borate 50 mM): 1.0 % Peak Area
% Peak Area 25HC3S (day 1, Borate 50 mM): 98.7 % Peak Area
% Peak Area Major Thermal Degradant at RRT = 2.64 (day 1, Borate 50 mM): 0.3 % Peak Area
% Peak Area 25-Hydroxy Cholesterol at RRT = 3.67 (day 1, Phosphate 10 mM): 0.9 % Peak Area
% Peak Area 25HC3S (day 1, Phosphate 10 mM): 98.9 % Peak Area
% Peak Area Major Thermal Degradant at RRT = 2.64 (day 1, Phosphate 10 mM): 0.3 % Peak Area
% Peak Area 25-Hydroxy Cholesterol at RRT = 3.67 (day 1, Phosphate 20 mM): 1.0 % Peak Area
% Peak Area 25HC3S (day 1, Phosphate 20 mM): 98.8 % Peak Area
% Peak Area Major Thermal Degradant at RRT = 2.64 (day 1, Phosphate 20 mM): 0.3 % Peak Area
% Peak Area 25-Hydroxy Cholesterol at RRT = 3.67 (day 1, Phosphate 50 mM): 1.0 % Peak Area
% Peak Area 25HC3S (day 1, Phosphate 50 mM): 98.9 % Peak Area
% Peak Area Major Thermal Degradant at RRT = 2.64 (day 1, Phosphate 50 mM): 0.2 % Peak Area
% Peak Area 25-Hydroxy Cholesterol at RRT = 3.67 (day 1, Phosphate 100 mM): 0.9 % Peak Area
% Peak Area 25HC3S (day 1, Phosphate 100 mM): 98.8 % Peak Area
% Peak Area Major Thermal Degradant at RRT = 2.64 (day 1, Phosphate 100 mM): 0.3 % Peak Area
% Peak Area 25-Hydroxy Cholesterol at RRT = 3.67 (day 2, Borate 10 mM): 1.9 % Peak Area
% Peak Area 25HC3S (day 2, Borate 10 mM): 97.9 % Peak Area
% Peak Area Major Thermal Degradant at RRT = 2.64 (day 2, Borate 10 mM): 0.3 % Peak Area
% Peak Area 25-Hydroxy Cholesterol at RRT = 3.67 (day 2, Borate 50 mM): 2.0 % Peak Area
% Peak Area 25HC3S (day 2, Borate 50 mM): 97.8 % Peak Area
% Peak Area Major Thermal Degradant at RRT = 2.64 (day 2, Borate 50 mM): 0.3 % Peak Area
% Peak Area 25-Hydroxy Cholesterol at RRT = 3.67 (day 2, Phosphate 10 mM): 1.9 % Peak Area
% Peak Area 25HC3S (day 2, Phosphate 10 mM): 97.9 % Peak Area
% Peak Area Major Thermal Degradant at RRT = 2.64 (day 2, Phosphate 10 mM): 0.3 % Peak Area
% Peak Area 25-Hydroxy Cholesterol at RRT = 3.67 (day 2, Phosphate 20 mM): 1.9 % Peak Area
% Peak Area 25HC3S (day 2, Phosphate 20 mM): 98.0 % Peak Area
% Peak Area Major Thermal Degradant at RRT = 2.64 (day 2, Phosphate 20 mM): 0.2 % Peak Area
% Peak Area 25-Hydroxy Cholesterol at RRT = 3.67 (day 2, Phosphate 50 mM): 2.0 % Peak Area
% Peak Area 25HC3S (day 2, Phosphate 50 mM): 97.8 % Peak Area
% Peak Area Major Thermal Degradant at RRT = 2.64 (day 2, Phosphate 50 mM): 0.3 % Peak Area
% Peak Area 25-Hydroxy Cholesterol at RRT = 3.67 (day 2, Phosphate 100 mM): 2.0 % Peak Area
% Peak Area 25HC3S (day 2, Phosphate 100 mM): 97.8 % Peak Area
% Peak Area Major Thermal Degradant at RRT = 2.64 (day 2, Phosphate 100 mM): 0.3 % Peak Area
% Peak Area 25-Hydroxy Cholesterol at RRT = 3.67 (day 3, Borate 10 mM): 2.8 % Peak Area
% Peak Area 25HC3S (day 3, Borate 10 mM): 97.0 % Peak Area
% Peak Area Major Thermal Degradant at RRT = 2.64 (day 3, Borate 10 mM): 0.3 % Peak Area
% Peak Area 25-Hydroxy Cholesterol at RRT = 3.67 (day 3, Borate 50 mM): 3.0 % Peak Area
% Peak Area 25HC3S (day 3, Borate 50 mM): 96.9 % Peak Area
% Peak Area Major Thermal Degradant at RRT = 2.64 (day 3, Borate 50 mM): 0.2 % Peak Area
% Peak Area 25-Hydroxy Cholesterol at RRT = 3.67 (day 3, Phosphate 10 mM): 4.3 % Peak Area
% Peak Area 25HC3S (day 3, Phosphate 10 mM): 95.6 % Peak Area
% Peak Area Major Thermal Degradant at RRT = 2.64 (day 3, Phosphate 10 mM): 0.2 % Peak Area
% Peak Area 25-Hydroxy Cholesterol at RRT = 3.67 (day 3, Phosphate 20 mM): 3.5 % Peak Area
% Peak Area 25HC3S (day 3, Phosphate 20 mM): 96.4 % Peak Area
% Peak Area Major Thermal Degradant at RRT = 2.64 (day 3, Phosphate 20 mM): 0.2 % Peak Area
% Peak Area 25-Hydroxy Cholesterol at RRT = 3.67 (day 3, Phosphate 50 mM): 3.3 % Peak Area
% Peak Area 25HC3S (day 3, Phosphate 50 mM): 96.5 % Peak Area
% Peak Area Major Thermal Degradant at RRT = 2.64 (day 3, Phosphate 50 mM): 0.3 % Peak Area
% Peak Area 25-Hydroxy Cholesterol at RRT = 3.67 (day 3, Phosphate 100 mM): 3.2 % Peak Area
% Peak Area 25HC3S (day 3, Phosphate 100 mM): 96.6 % Peak Area
% Peak Area Major Thermal Degradant at RRT = 2.64 (day 3, Phosphate 100 mM): 0.3 % Peak Area
% Peak Area 25-Hydroxy Cholesterol at RRT = 3.67 (day 7, Borate 10 mM): 7.3 % Peak Area
% Peak Area 25HC3S (day 7, Borate 10 mM): 92.5 % Peak Area
% Peak Area Major Thermal Degradant at RRT = 2.64 (day 7, Borate 10 mM): 0.2 % Peak Area
% Peak Area 25-Hydroxy Cholesterol at RRT = 3.67 (day 7, Borate 50 mM): 6.2 % Peak Area
% Peak Area 25HC3S (day 7, Borate 50 mM): 93.6 % Peak Area
% Peak Area Major Thermal Degradant at RRT = 2.64 (day 7, Borate 50 mM): 0.3 % Peak Area
% Peak Area 25-Hydroxy Cholesterol at RRT = 3.67 (day 7, Phosphate 10 mM): 27.1 % Peak Area
% Peak Area 25HC3S (day 7, Phosphate 10 mM): 72.3 % Peak Area
% Peak Area Major Thermal Degradant at RRT = 2.64 (day 7, Phosphate 10 mM): 0.7 % Peak Area
% Peak Area 25-Hydroxy Cholesterol at RRT = 3.67 (day 7, Phosphate 20 mM): 19.8 % Peak Area
% Peak Area 25HC3S (day 7, Phosphate 20 mM): 79.9 % Peak Area
% Peak Area Major Thermal Degradant at RRT = 2.64 (day 7, Phosphate 20 mM): 0.2 % Peak Area
% Peak Area 25-Hydroxy Cholesterol at RRT = 3.67 (day 7, Phosphate 50 mM): 11.6 % Peak Area
% Peak Area 25HC3S (day 7, Phosphate 50 mM): 88.2 % Peak Area
% Peak Area Major Thermal Degradant at RRT = 2.64 (day 7, Phosphate 50 mM): 0.2 % Peak Area
% Peak Area 25-Hydroxy Cholesterol at RRT = 3.67 (day 7, Phosphate 100 mM): 9.8 % Peak Area
% Peak Area 25HC3S (day 7, Phosphate 100 mM): 90.0 % Peak Area
% Peak Area Major Thermal Degradant at RRT = 2.64 (day 7, Phosphate 100 mM): 0.2 % Peak Area
